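Results reflect a 48-hour exposure of cells in 96-well plates to compound at five concentrations. GI50 is the concentration that inhibits growth by half.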 Activity calls are given as the source filed them. Rule as the data show it: active = GI50 up to about 1.1 µM and inactive = higher.
Assays:
Assay in all cases: DTP human tumour cell line panel, 48 h
[1] = tested on: HCC 2998
[2] = tested on: 786-0
[3] = tested on: SF-295
[4] = tested on: SNB-78
[5] = tested on: DMS-114
[6] = tested on: NCI-H522
[7] = tested on: COLO 205
[8] = tested on: RXF 393
[9] = tested on: HOP-92
[10] = tested on: SW-620
[11] = tested on: XF498
[12] = tested on: SK-MEL-5
[13] = tested on: OVCAR-4
[14] = tested on: M19-MEL
[15] = tested on: ACHN
[16] = tested on: K562
[17] = tested on: SF-539
[18] = tested on: DLD-1
[19] = tested on: UO-31
[20] = tested on: HL-60
[21] = tested on: SNB-19
[22] = tested on: DMS-273
[23] = tested on: CCRF-CEM
[24] = tested on: KM-20L2
[25] = tested on: CAKI-1
[26] = tested on: OVCAR-3
[27] = tested on: RXF 631
[28] = tested on: SK-MEL-2
[29] = tested on: OVCAR-8
[30] = tested on: SNB-75
[31] = tested on: HCT-15
[32] = tested on: MOLT-4
[33] = tested on: UACC-62
[34] = tested on: LOX IMVI
[35] = tested on: SN12C
[36] = tested on: HOP-18
[37] = tested on: IGROV-1
[38] = tested on: NCI-H23
[39] = tested on: KM12
[40] = tested on: SK-MEL-28
[41] = tested on: HOP-62
[42] = tested on: OVCAR-5
[43] = tested on: TK-10
[44] = tested on: Malme-3M
[45] = tested on: UACC-257
[46] = tested on: A498
[47] = tested on: LXFL 529
[48] = tested on: A549
[49] = tested on: EKVX
[50] = tested on: NCI-H226
[51] = tested on: HCT-116
[52] = tested on: NCI-H460
[53] = tested on: SK-OV-3
[54] = tested on: SF-268
[55] = tested on: U-251
[56] = tested on: HT-29
[57] = tested on: M14
[58] = tested on: SR
[59] = tested on: RPMI-8226

Structure (SMILES): COC(=O)NN=C1C(C)(C)C(=NNC(=O)OC)C1(C)C
- GI50 [1]: > 100 µM (inactive)
- GI50 [2]: > 100 µM (inactive)
- GI50 [3]: > 100 µM (inactive)
- GI50 [4]: > 100 µM (inactive)
- GI50 [5]: > 41.6 µM (inactive)
- GI50 [6]: > 61.4 µM (inactive)
- GI50 [7]: > 41.6 µM (inactive)
- GI50 [8]: > 100 µM (inactive)
- GI50 [9]: > 100 µM (inactive)
- GI50 [10]: > 100 µM (inactive)
- GI50 [11]: > 96.6 µM (inactive)
- GI50 [12]: > 100 µM (inactive)
- GI50 [13]: > 100 µM (inactive)
- GI50 [14]: > 40.6 µM (inactive)
- GI50 [15]: > 100 µM (inactive)
- GI50 [16]: > 100 µM (inactive)
- GI50 [17]: > 100 µM (inactive)
- GI50 [18]: > 61.9 µM (inactive)
- GI50 [19]: > 100 µM (inactive)
- GI50 [20]: > 100 µM (inactive)
- GI50 [21]: > 100 µM (inactive)
- GI50 [22]: > 100 µM (inactive)
- GI50 [23]: > 44.9 µM (inactive)
- GI50 [24]: > 100 µM (inactive)
- GI50 [25]: > 85.1 µM (inactive)
- GI50 [26]: > 100 µM (inactive)
- GI50 [27]: > 100 µM (inactive)
- GI50 [28]: > 100 µM (inactive)
- GI50 [29]: > 41.2 µM (inactive)
- GI50 [30]: > 100 µM (inactive)
- GI50 [31]: > 90.6 µM
- GI50 [32]: > 100 µM (inactive)
- GI50 [33]: > 100 µM (inactive)
- GI50 [34]: > 35.8 µM (inactive)
- GI50 [35]: > 68.2 µM (inactive)
- GI50 [36]: > 100 µM (inactive)
- GI50 [37]: > 100 µM (inactive)
- GI50 [38]: > 48.9 µM (inactive)
- GI50 [39]: > 100 µM (inactive)
- GI50 [40]: > 100 µM (inactive)
- GI50 [41]: > 100 µM (inactive)
- GI50 [42]: > 100 µM (inactive)
- GI50 [43]: > 100 µM (inactive)
- GI50 [44]: > 100 µM (inactive)
- GI50 [45]: > 100 µM (inactive)
- GI50 [46]: > 100 µM (inactive)
- GI50 [47]: > 100 µM (inactive)
- GI50 [48]: > 100 µM (inactive)
- GI50 [49]: > 100 µM (inactive)
- GI50 [50]: > 100 µM (inactive)
- GI50 [51]: > 45.5 µM (inactive)
- GI50 [52]: > 100 µM (inactive)
- GI50 [53]: > 100 µM (inactive)
- GI50 [54]: > 84.1 µM (inactive)
- GI50 [55]: > 62.7 µM (inactive)
- GI50 [56]: > 36.9 µM (inactive)
- GI50 [57]: > 100 µM (inactive)

Structure (SMILES): O=C(O)CCC(NC(=O)c1ccc(Nc2nc3ccccc3nc2-c2cccs2)cc1)C(=O)O (stereo not given)
- GI50 [1]: > 100 µM (inactive)
- GI50 [2]: > 100 µM (inactive)
- GI50 [3]: > 100 µM (inactive)
- GI50 [4]: > 100 µM (inactive)
- GI50 [5]: > 100 µM (inactive)
- GI50 [6]: > 100 µM (inactive)
- GI50 [8]: > 100 µM (inactive)
- GI50 [9]: > 100 µM (inactive)
- GI50 [10]: > 100 µM (inactive)
- GI50 [11]: > 100 µM (inactive)
- GI50 [12]: > 100 µM (inactive)
- GI50 [13]: > 100 µM (inactive)
- GI50 [14]: > 100 µM (inactive)
- GI50 [15]: > 100 µM (inactive)
- GI50 [16]: > 100 µM (inactive)
- GI50 [17]: > 100 µM (inactive)
- GI50 [18]: > 100 µM (inactive)
- GI50 [19]: > 100 µM (inactive)
- GI50 [20]: > 100 µM (inactive)
- GI50 [21]: > 100 µM (inactive)
- GI50 [22]: > 100 µM (inactive)
- GI50 [23]: > 100 µM (inactive)
- GI50 [24]: > 100 µM (inactive)
- GI50 [25]: > 100 µM (inactive)
- GI50 [58]: > 100 µM (inactive)
- GI50 [26]: > 100 µM (inactive)
- GI50 [27]: > 100 µM (inactive)
- GI50 [28]: > 100 µM (inactive)
- GI50 [29]: > 100 µM (inactive)
- GI50 [30]: > 100 µM (inactive)
- GI50 [31]: > 100 µM
- GI50 [32]: > 100 µM (inactive)
- GI50 [33]: > 100 µM (inactive)
- GI50 [34]: > 100 µM (inactive)
- GI50 [35]: > 100 µM (inactive)
- GI50 [36]: > 100 µM (inactive)
- GI50 [37]: > 100 µM (inactive)
- GI50 [38]: > 100 µM (inactive)
- GI50 [39]: > 100 µM (inactive)
- GI50 [40]: > 100 µM (inactive)
- GI50 [41]: > 100 µM (inactive)
- GI50 [42]: > 100 µM (inactive)
- GI50 [43]: > 100 µM (inactive)
- GI50 [59]: > 100 µM (inactive)
- GI50 [44]: > 100 µM (inactive)
- GI50 [45]: > 100 µM (inactive)
- GI50 [46]: > 100 µM (inactive)
- GI50 [47]: > 100 µM (inactive)
- GI50 [48]: > 100 µM (inactive)
- GI50 [49]: > 100 µM (inactive)
- GI50 [50]: > 100 µM (inactive)
- GI50 [51]: > 100 µM (inactive)
- GI50 [52]: > 100 µM (inactive)
- GI50 [53]: > 100 µM (inactive)
- GI50 [54]: > 100 µM (inactive)
- GI50 [55]: > 100 µM (inactive)
- GI50 [56]: > 100 µM (inactive)
- GI50 [57]: > 100 µM (inactive)
